This experiment can be described thus: Inhibition of Influenza virus NA. Also noted: species or system unidentified influenza virus.

`CC(=O)N[C@H]1[C@H]([C@H](O)[C@H](O)CO)OC(C(=O)O)=C[C@@H]1O` [NEU5AC2EN]: the Ki is 4 µM.

Usually Ki stands for a measure of affinity in units of concentration, obtained from inhibition or displacement. Lower therefore signals higher affinity.

For the origin of these results see ChEMBL document CHEMBL4261546, “Synthesis of novel pentacyclic triterpene-Neu5Ac2en derivatives and investigation of their in vitro anti-influenza entry activity” (Medchemcomm, 2017).
